Results reported in PubChem BioAssay (NCI).
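Step 1: Grow cells in 96-well plates. Step 2: Expose to compound for 48 hours at 5 concentrations. Step 3: Interpolate endpoints linearly; if unreached, use highest concentration. TGI: concentration producing complete growth inhibition.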

Legend:
Experiment in all cases: NCI-60 cell line screen, 48 h
[1] = test system: DU-145 prostate
[2] = test system: A498 renal
[3] = test system: U251 CNS
[4] = test system: T-47D breast
[5] = test system: BT-549 breast
[6] = test system: NCI/ADR-RES ovarian
[7] = test system: SF-268 CNS
[8] = test system: HOP-92 NSCLC
[9] = test system: HT29 colon
[10] = test system: LOX IMVI melanoma
[11] = test system: SR leukemia
[12] = test system: HS 578T breast
[13] = test system: SK-MEL-2 melanoma
[14] = test system: ACHN renal
[15] = test system: MDA-MB-435
[16] = test system: SK-MEL-5 melanoma
[17] = test system: OVCAR-4 ovarian
[18] = test system: IGROV1 ovarian
[19] = test system: MDA-N
[20] = test system: SNB-75 CNS
[21] = test system: NCI-H460 lung
[22] = test system: OVCAR-5 ovarian
[23] = test system: UACC-257 melanoma
[24] = test system: HL-60(TB) leukemia
[25] = test system: SW-620 colon
[26] = test system: RPMI-8226 leukemia
[27] = test system: MCF7 breast
[28] = test system: MOLT-4 leukemia
[29] = test system: OVCAR-3 ovarian
[30] = test system: SNB-19 CNS
[31] = test system: CAKI-1 renal
[32] = test system: M14 melanoma
[33] = test system: PC-3 prostate
[34] = test system: COLO 205 colon
[35] = test system: OVCAR-8 ovarian
[36] = test system: KM12 colon
[37] = test system: 786-0 renal
[38] = test system: SK-MEL-28 melanoma
[39] = test system: UO-31 renal
[40] = test system: TK-10 renal
[41] = test system: A549 NSCLC
[42] = test system: HCT-116 colon
[43] = test system: SF-295 CNS
[44] = test system: NCI-H522 lung
[45] = test system: SN12C renal
[46] = test system: EKVX NSCLC
[47] = test system: CCRF-CEM leukemia
[48] = test system: HCC-2998 colon
[49] = test system: SF-539 CNS
[50] = test system: MALME-3M melanoma
[51] = test system: UACC-62 melanoma
[52] = test system: MDA-MB-231 breast
[53] = test system: NCI-H23 lung
[54] = test system: HOP-62 NSCLC

Measured: TGI

N#Cc1ccc(OCc2nc3cc(C(F)(F)F)ccc3nc2-c2ccccc2)cc1
> 100 µM: all assays above
